# From patent US4900539A, “Radiohalogenated thienylethylamine derivatives for evaluating local cerebral blood flow” (The United States of America as represented by the United …, priority 1988, dated 1990)
# Tests used:
# [1] = Tissue distribution of 5-halothiophene-2-isopropylamines in Fisher rats (brain uptake and brain:blood); format: in vivo; conditions: for tissue uptake at 5 min / tissue uptake at 0.5 h / tissue uptake at 1 h: rat, brain, read-out: Mean Brain, % Dose/gm
# Excerpt: TISSUE DISTRIBUTION OF 5-HALOTHIOPHENE-
# Mean Brain, % Dose/gm (Mean Brain:Blood)
# [2] = IMP versus HIPDM, cited from earlier work
Compound,brain uptake and retention (in words) [1],Mean Brain:Blood ([1]; 5 min),Mean Brain:Blood ([1]; 30 min),Mean Brain:Blood ([1]; 60 min),tissue uptake at 5 min ([1]; 5 min) [%ID/g],tissue uptake at 0.5 h ([1]; 30 min) [%ID/g],tissue uptake at 1 h ([1]; 60 min) [%ID/g],brain-to-blood ratios (in words) [1],lung clearance relative to HIPDM [2],amount of activity in the brain relative to HIPDM ([2]; five minutes after administration)
CC(N)Cc1ccc([82Br])s1 (centres unmarked) [Br--82],good brain uptake and retention,10.4,4.1,2.2,2.7,2.3,1.67,–,–,–
CC(N)Cc1ccc([125I])s1 (centres unmarked) [I--125],high brain uptake and good retention,6.0,3.7,2.1,2.77,2.51,1.42,high brain-to-blood ratios,–,–
"CC(C)NC(C)Cc1ccc(I)cc1 (centres unmarked) [IMP, N-isopropyl-p-iodoamphetamine]",–,–,–,–,–,–,–,–,clears the lungs faster,almost twice the amount of activity in the brain
